Experimental data taken from patent US8507472B2 (priority 2010, dated 2013).
Several values for one entry are separate records, joined by “and”; a condition that tells them apart may be missing. Equal values may be shown once.

Key:
Alternaria solani = experiment: Alternaria test (tomato)/protective; format: in vivo; conditions: in vivo
Outline: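 Young tomato plants were sprayed with compound (DMF/emulsifier formulation diluted in water) and inoculated with A. solani spores 1 day later. Plants were kept 24 h at 100% RH and 22 °C, then at 96% RH and 20 °C. Efficacy was scored 7 days post-inoculation, where 0% equals untreated control and 100% means no infection.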

[1] = tested on: Fusarium nivale (var. majus); experiment: Fusarium nivale (var. majus) test (wheat)/protective; format: in vivo; conditions: 1000 ppm active compound, protective, evaluation 5 days after inoculation
Protocol: (§1) Solvent: 49 parts by weight of N,N-dimethylacetamide
(§2) Emulsifier: 1 part by weight of alkylaryl polyglycol ether
(§3) To produce a suitable preparation of active compound, 1 part by weight of active compound is mixed with the stated amounts of solvent and emulsifier, and the concentrate is diluted with water to the desired concentration.
(§4) To test for protective activity, young plants are sprayed with the active compound preparation at the stated application rate.
After the spray coating has dried on, the plants are sprayed with spores of a spore suspension of Fusarium nivale (var. majus).
The plants are placed in a greenhouse chamber under a translucent incubation hood at 10° C. and 100% relative atmospheric humidity.
Evaluation is carried out 5 days after the inoculation. 0% means an efficacy which corresponds to that of the control, whereas an efficacy of 100% means that no infection is observed.

Fusarium graminearum [2] = experiment: microbe, parasite or virus in culture; format: cell-based; conditions: 50 μM
Phytophthora infestans = format: in vivo; conditions: in vivo
Sphaerotheca fuliginea = experiment: Sphaerotheca test (cucumber)/protective; format: in vivo; conditions: in vivo
Outline: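 Protective test: young cucumber plants sprayed with compound (DMF/alkylaryl polyglycol ether concentrate diluted in water) at the stated rate, inoculated with S. fuliginea spores 1 day later, then kept in greenhouse at 23 °C, 70% RH. Efficacy scored 7 days post-inoculation; 0% equals untreated control, 100% means no infection.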

Venturia inaequalis = experiment: Venturia test (apple)/protective; format: in vivo; conditions: 100 ppm active compound, protective, evaluation 10 days after inoculation
Outline: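 Young apple plants sprayed protectively with compound (in acetone/dimethylacetamide with alkylaryl polyglycol ether, diluted in water) at the stated rate, then inoculated with V. inaequalis conidia once dry. Held 1 day at ~20° C, 100% humidity, then greenhouse ~21° C, ~90% humidity; efficacy scored 10 days post-inoculation (0% = control, 100% = no infection).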

Puccinia triticina = Puccinia triticina test (wheat)/protective; format: in vivo; conditions: in vivo
Protocol: Solvent: 49 parts by weight of […]
as §2, §3, §4
After the spray coating has dried on, the plants are sprayed with spores of a spore suspension of Puccinia triticina. The plants remain in an incubation cabin at 20° C. and 100% relative atmospheric humidity for 48 hours.
The plants are placed in greenhouse at a temperature of about 20° C. and a relative atmospheric humidity of about 80%.
Evaluation is carried out 8 days after the inoculation. 0% means an efficacy which corresponds to that of the control, whereas an efficacy of 100% means that no infection is observed.

Botrytis cinerea = experiment: Botrytis test (bean)/protective; format: in vivo; conditions: 100 ppm active compound, protective, evaluation 2 days after inoculation
Protocol: (§5) Solvents: 24.5 parts by weight of acetone
(§6) • 24.5 parts by weight of dimethylacetamide Emulsifier: 1 part by weight of alkylaryl polyglycol ether
(§7) To produce a suitable preparation of active compound, 1 part by weight of active compound is mixed with the stated amounts of solvents and emulsifier, and the concentrate is diluted with water to the desired concentration.
To test for protective activity, young plants are sprayed with the active compound preparation at the stated application rate. After the spray coating has dried on, 2 small pieces of agar colonized by Botrytis cinerea are placed onto each leaf. The inoculated plants are placed in a dark chamber at about 20° C. and 100% relative atmospheric humidity.
2 days after the inoculation, the size of the infected areas on the leaves is evaluated. 0% means an efficacy which corresponds to that of the control, whereas an efficacy of 100% means that no infection is observed.

Pyrenophora teres = Pyrenophora teres test (barley)/protective; format: in vivo; conditions: in vivo
Outline: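 Protective test: young barley plants sprayed at the stated rate with compound in DMF/alkylaryl polyglycol ether diluted with water, inoculated with P. teres spores 1 day later, kept 48 h at 100% rel. humidity and 22° C., then greenhouse at 80% and 20° C. Efficacy scored 7-9 days post-inoculation (0% = control, 100% = no infection).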

DON/AcDON production = experiment: microbe, parasite or virus in culture; format: cell-based, Fusarium graminearum; conditions: 7 days at 28° C.
Fusarium graminearum [3] = format: in vivo; conditions: in vivo
Leptosphaeria nodorum = Leptosphaeria nodorum test (wheat)/protective; format: in vivo; conditions: in vivo
Outline: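 Young wheat plants were sprayed protectively, then inoculated 1 day later with L. nodorum spores and held 48 h at 100% humidity and 22° C. They were then kept in a greenhouse at 90% humidity and 22° C. Efficacy was scored 7-9 days post-inoculation, where 0% equals control and 100% means no infection.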

Septoria tritici = Septoria tritici test (wheat)/protective; format: in vivo; conditions: in vivo
Protocol: as §1, §2
To produce a suitable preparation of active compound, 1 part by weight of active compound is mixed with the stated amount of solvent and emulsifier, and the concentrate is diluted with water to the desired concentration.
To test for protective activity, young plants are sprayed with the active compound preparation at the stated application rate. After the spray coating has dried on, the plants are sprayed with a spore suspension of Septoria tritici. The plants remain in an incubation cabin at 20° C. and 100% relative atmospheric humidity for 48 hours. The plants are then placed under a translucent hood at 15° C. and 100% relative atmospheric humidity for a further 60 hours.
The plants are placed in a greenhouse at a temperature of about 15° C. and a relative atmospheric humidity of 80%.
Evaluation is carried out 21 days after the inoculation. 0% means an efficacy which corresponds to that of the control, whereas an efficacy of 100% means that no infection is observed.

Uromyces appendiculatus = experiment: Uromyces test (bean)/protective; format: in vivo; conditions: in vivo
Protocol: as §5, §6, §7
To test for protective activity, young plants are sprayed with the active compound preparation at the stated application rate. After the spray coating has dried on, the plants are inoculated with an aqueous spore suspension of the bean rust pathogen Uromyces appendiculatus and then remain in an incubation cabin at about 20° C. and 100% relative atmospheric humidity for 1 day.
The plants are then placed in a greenhouse at about 21° C. and a relative atmospheric humidity of about 90%.
Evaluation is carried out 10 days after the inoculation. 0% means an efficacy which corresponds to that of the control, whereas an efficacy of 100% means that no infection is observed.

| SMILES | efficacy in % (Alternaria solani) [%] | efficacy in % [1] [%] | % inhibition of the fungal growth of Fusarium graminearum at 50 μM (Fusarium graminearum [2]) [%] | efficacy in % (Phytophthora infestans) [%] | efficacy in % (Sphaerotheca fuliginea) [%] | efficacy in % (Venturia inaequalis) [%] | efficacy in % (Puccinia triticina) [%] | efficacy in % (Botrytis cinerea) [%] | efficacy in % (Pyrenophora teres) [%] | % inhibition of DON/AcDON at 50 μM (DON/AcDON production) [%] | efficacy in % (Fusarium graminearum [3]) [%] | efficacy in % (Leptosphaeria nodorum) [%] | efficacy in % (Septoria tritici) [%] | efficacy in % (Uromyces appendiculatus) |
| --- | --- | --- | --- | --- | --- | --- | --- | --- | --- | --- | --- | --- | --- | --- |
| CCC(=O)Nc1cc(-c2c(-c3ccccc3)nn3c2CCCC3)ccn1 [Example 8] | 100 | 100 | 100 | 95 | 99 | 96 | 100 | 99 | 100 | 99 | 88 | 95 | 100 | 100% |
| CC(=O)Nc1cc(-c2c(-c3ccc(F)cc3)nn3c2CCCC3)ccn1 [Example 15] | 100 | 100 | 88 | 95 | 98 | 94 | 94 | 82 | 100 | 99 | 100 | 95 | 100 | 94% |
| COCC(=O)Nc1cc(-c2c(-c3ccc(F)cc3)nn3c2CCCC3)ccn1 [Example 22] | 95 | 86 | 97 | 90 | 90 | 76 | 75 | 89 | 95 | 100 | 100 | 80 | 86 | 94% |
| COCC(=O)Nc1cc(-c2c(-c3ccccc3)nn3c2CCCC3)ccn1 [Example 23] | 95 | 86 | 97 | 80 | 89 | 98 | 75 | 100 | 95 | 100 | 88 | 90 | 86 | 95% |
| C[C@H](O)C(=O)Nc1cc(-c2c(-c3ccc(F)cc3)nn3c2CCCC3)ccn1 [Example 24] | 95 | 100 | 74 | 90 | 94 | 83 | 100 | 76 | 95 | 99 | 100 | 90 | 100 | 91% |
| O=C(Nc1cc(-c2c(-c3ccc(F)cc3)nn3c2CCCC3)ccn1)c1ccccc1 [Example 32] | 78 | 86 | 94 | 70 | – | 90 | 89 | 98 | 78 | 99 | 86 | 90 | 100 | 96% |
| CCC(=O)Nc1cc(-c2c(-c3ccc(F)cc3)nn3c2CCC3)ccn1 [Example 40] | 100 | 100 | – | 70 | 94 | 94 | 100 | 100 | 95 | – | 100 | 95 | 90 | 81% and 75% |
| CC(C)C(=O)Nc1cc(-c2c(-c3ccsc3)nn3c2CCCC3)ccn1 [Example 63] | 100 | 83 | 100 | 95 | 93 | 99 | 86 | 94 | 95 | 100 | 83 | 94 | 100 | 75% |
| CCC(=O)Nc1cc(-c2c(-c3ccc(F)cc3)nn3c2CCC3C)ccn1 (stereo not shown) [Example 76] | 100 | 100 | – | – | 100 | 100 | 88 | 100 | – | – | 90 | 89 | 100 | 95% |
| CC(C)C(=O)Nc1cc(-c2c(-c3ccc(F)cc3)nn3c2CCC3C)ccn1 (stereo not shown) [Example 77] | 89 | 100 | – | – | – | 100 | 88 | 100 | – | – | 90 | 94 | 100 | 98% |
| CC1CCc2c(-c3ccncc3F)c(-c3ccc(F)cc3)nn21 (stereo not shown) [Example 117] | 94 | 100 | – | – | 95 | 100 | 100 | 100 | 100 | – | 100 | 86 | 100 | 90% |
